Read-outs that look alike come from different tables or passages of the source.
Experiments:
[1] = test system: A549 human lung cancer cell line; experiment: A549 cell growth in zymosan-activated human serum (MTT cell viability); assay type: cell-based; settings: A549 cells, 15% human serum, n=4, read-out: IC50, inhibition of A549 cell growth induced by zymosan-activated human serum complement
Description: (§1) Experiment 1 was designed to determine the effect of ATA, AHA, AQA and ATAC on U251 cell growth in the presence of complement activated human serum. In Experiment 1(a), U251 cells were treated with various concentrations of human serum (1, 5, 7.5, 10, 12.5, 15%) in DMEM and incubated with 1 μg/mL zymosan at 37° C. for 72 h. Control U251 cells (CON) were incubated in fresh DMEM only. As a further control U251 cells were treated with 10% human serum heated at 56° C. for 30 min to heat inactivate complement (HIS) before incubation with 1 μg/ml zymosan. In Experiment 1(b), U251 cells were treated with various concentrations of ATAC, ATA, AQA and AHA (0.1, 1, 5, 10, 30, 50 μM) in DMEM with 15% human serum and incubated with 1 μg/mL zymosan at 37 ° C. for 72 h. In both Experiments 1(a) and 1(b), following incubation, cell viability was evaluated by MTT (3-[4,5-dimethylthiazol-2-yl]-2,5 diphenyl tetrazolium bromide) assays by adding MTT to the cell cultures to reach a final concentration of 1 mg/mL. Following a 1 h incubation at 37° C., the dark crystals formed were dissolved by adding a SDS/DMF extraction buffer (300 μL, 20% sodium dodecyl sulfate, 50% N,N-dimethylformamide, pH 4.7). Plates were subsequently incubated overnight at 37° C. and optical densities at 570 nm were measured by transferring 100 μL aliquots to 96-well plates and using a plate reader with a corresponding filter.
(§2) Experiment 5 was designed to determine the effect of ATA, AHA, AQA and ATAC on BxPC-3 cell growth in the presence of complement activated human serum.
Experiment 9 was designed to determine the effect of ATA, AQA, AHA and ATAC on A549 cell growth. The protocol was identical to that used in Experiment 5(b) except A549 cells were used.

[2] = test system: human bone osteosarcoma MNNG cells; experiment: MNNG cell growth in zymosan-activated human serum (MTT cell viability); assay type: cell-based; settings: 15% human serum, n=4, read-out: IC50, inhibition of MNNG cell growth induced by zymosan-activated human serum complement
Description: as §1
Experiment 21 was designed to determine the effect of ATA, AQA, AHA and ATAC on growth of the human bone osteosarcoma MNNG cell line. The protocol was identical to that used in Experiment 19 (b) except that human bone osteosarcoma MNNG cells were utilized.

[3] = test system: BT 474 human breast cancer cell line; experiment: BT 474 cell growth in zymosan-activated human serum (MTT cell viability); assay type: cell-based; settings: BT 474 cells, 15% human serum, n=4, read-out: IC50, inhibition of BT 474 cell growth induced by zymosan-activated human serum complement
Description: as §1
Experiment 13 was designed to determine the effect of ATA, AQA, AHA and ATAC on BT 474 cell growth. The protocol was identical to that used in Experiment 1(b) except BT 474 cells were used.

A549 cells = experiment: Lactic dehydrogenase release from A549 cells; assay type: cell-based, human; settings: n=4, read-out: IC50, lactate dehydrogenase release from A549 cells
Description: (§3) Experiment 4 was designed to confirm apoptotic cell death of U251 cells induced by ATA, AQA, AHA, and ATAC by measuring release of lactic dehydrogenase into the cell medium. For serum lactate dehydrogenase determination, reaction supernatants ([…]) were pipetted into the wells of 96-well plates, followed by the addition of […] lactate solution (36 mg/mL in PBS) and […] INT (iodonitrotetrazolium chloride, 2-(4-iodophenyl)-3-(4-nitrophenyl)-5-phenyl-2H-tetrazolium chloride) solution (2 mg/mL in PBS). The enzymatic reaction was started by addition of […] of NAD^+/diaphorase solution (3 mg/mL NAD^+; 2.3 mg solid/mL diaphorase). After 1 h, optical densities were measured with a microplate reader using a 490 nm filter. The amount of LDH released was expressed as a percentage of the value obtained in comparative cells where cells were 100% lysed by 1% Triton X-100.
(§4) Experiment 8 was designed to confirm apoptotic cell death of BxPC-3 cells induced by ATA, AQA, AHA, and ATAC by the release of lactic dehydrogenase into the cell medium.
Experiment 12 was designed to confirm apoptotic cell death of A549 cells induced by ATA, AQA, AHA, and ATAC by the release of lactic dehydrogenase into the cell medium. The protocol was identical to that used in Experiment 8 except A549 cells were used.

[4] = test system: BxPC-3 human pancreatic adenocarcinoma cell line; experiment: BxPC-3 cell growth in zymosan-activated human serum (MTT cell viability); assay type: cell-based; settings: BxPC-3 cells, RPMI 1640, 15% human serum, 1 μg/mL zymosan, 72 h, n=4, read-out: IC50, inhibition of BxPC-3 cell growth induced by zymosan-activated human serum complement
Description: as §1, §2

BxPC-3 cells = experiment: Lactic dehydrogenase release from BxPC-3 cells; assay type: cell-based, human; settings: n=4, read-out: IC50, lactate dehydrogenase release from BxPC-3 cells
Description: as §3, §4

[5] = test system: K562 human chronic myelogenous leukemia cell line; experiment: K562 cell growth in zymosan-activated human serum (MTT cell viability); assay type: cell-based
Description: as §1
Experiment 17 was designed to determine the effect of ATA, AQA, AHA and ATAC on K562 human chronic myelogenous leukemia cell growth. The protocol was identical to that used in Experiment 15(b) except that K562 human chronic myelogenous were utilized and the growth medium was Iscove's.

[6] = test system: human colorectal adenocarcinoma cell line LS180; experiment: LS180 cell growth in zymosan-activated human serum (MTT cell viability); assay type: cell-based; settings: LS180 cells, EMEM, 15% human serum, n=4, read-out: IC50, inhibition of LS180 cell growth induced by zymosan-activated human serum complement
Description: as §1
Experiment 19 was designed to determine the effect of ATA, AQA, AHA and ATAC on growth of the human colorectal adenocarcinoma LS180 cell line. The protocol was identical to that used in Experiment 17(b) except that colorectal adenocarcinoma cells were utilized and the growth medium was EMEM.

[7] = K562 cells, Iscove's medium, 15% human serum, zymosan, MTT, n=4, read-out: IC50, inhibition of K562 cell growth induced by zymosan-activated human serum complement

IC50 [1]	IC50 [2]	IC50 [3]	IC50 [4]	IC50 [6]	IC50 (A549 cells)	IC50 (BxPC-3 cells)	IC50 [5, 7]	Molecule	IC50 (A549 cells; Homo sapiens)	IC50 (BxPC-3 cells; Homo sapiens)	IC50 ([5]; Homo sapiens, K562, read-out: IC50, inhibition of K562 cell growth induced by zymosan-activated human serum complement)
7.5 µM	7.5 µM	5.8 µM	6.8 µM	5.1 µM	7.6 µM	8.1 µM	4.6 µM	aurin hexacarboxylic acid [AHA]	–	–	–
7.4 µM	7.4 µM	6 µM	6.7 µM	5.2 µM	7.4 µM	8 µM	4.7 µM	aurin quadracarboxylic acid [AQA]	–	–	–

Molecule	IC50 [1]	IC50 [2]	IC50 [3]	IC50 [4]	IC50 [6]	IC50 (A549 cells)	IC50 (BxPC-3 cells)	IC50 [5, 7]	IC50 (A549 cells; Homo sapiens)	IC50 (BxPC-3 cells; Homo sapiens)	IC50 ([5]; Homo sapiens, K562, read-out: IC50, inhibition of K562 cell growth induced by zymosan-activated human serum complement)
O=C(O)C1=CC(=C(c2ccc(O)c(C(=O)O)c2)c2ccc(O)c(C(=O)O)c2)C=CC1=O [ATA, aurin tricarboxylic acid]	7.2 µM	7.2 µM	5.9 µM	6.5 µM	4.8 µM	–	–	–	7.5 µM	7.9 µM	4.5 µM

From US10653651B2, “Kit for treating cancer with low molecular weight components of aurin tricarboxylic acid complex” (Aurin Biotech Inc., priority 2014, dated 2020)
